biological target: T1, Pin1 (Homo sapiens, UniProt Q13526); assay: Evaluation of Pin1 enzyme inhibitory activity (Sensolyte Green Pin1 assay kit); type: biochemical; details: concentration at which the Pin1 enzyme activity is inhibited; 2 hours at room temperature, fluorescence 490 nm/520 nm; read-out: Pin 1 inhibition
T1 construct: purchased Anaspec
Procedure: In order to evaluate the Pin1 enzyme inhibitory activity of the compound represented by formula 1 according to the present invention, the following experiment was performed, and the results are shown in Table 2 below.
The enzyme activity of Pin1 protein was measured using a sensolyte Green Pin1 assay kit of Anaspec. The substrate was diluted in a buffer at a ratio of 1:100 to prepare a concentration of 1 μM, and the protein was diluted in a buffer at a ratio of 1:20 to prepare a concentration of 50 μg/ml. In addition, a developing solution was prepared by diluting thereof in a buffer at a ratio of 1:100.
The compound prepared in each example was diluted with DMSO and prepared at a concentration of 100 μM, 10 μM, 1 μM or 0.1 μM using a buffer. After sequentially adding 10 μl of the compound prepared in each Example diluted to four concentrations according to the above method, 10 μl of Pin1 protein, and 30 μl of the developing solution to each well of a black 96-well plate, […]. Finally, 50 μl of the substrate was added to each well of the plate, and the enzyme reaction was carried out after shaking the plate for 10 seconds.
Then, the plate was incubated for 2 hours at room temperature in an environment without light, and the fluorescence values at 490 nm/520 nm wavelength were measured using a device of Synergy Neo […]. The results are shown in Table 2 below by dividing the grades of A to D for each concentration (μM) at which the Pin1 enzyme activity is inhibited.

T1 sequence (Q13526 whole entry): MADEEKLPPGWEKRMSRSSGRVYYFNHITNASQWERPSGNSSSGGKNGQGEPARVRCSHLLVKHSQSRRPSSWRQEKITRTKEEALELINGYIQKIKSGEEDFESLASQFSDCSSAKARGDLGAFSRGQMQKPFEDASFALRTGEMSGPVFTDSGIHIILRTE

SMILES | IC50
CCCCOc1ccc(S(=O)(=O)NCCCc2ccc(-c3ccccc3)cc2)cc1 [Example 1, N-(3-([1,1′-biphenyl]-4-yl)propyl)-4-butoxybenzenesulfonamide] | > 100 µM
CCCCOc1ccc(S(=O)(=O)NCCCN2CCN(C(C)C)CC2)cc1 [Example 2, 4-butoxy-N-(3-(4-isopropylpiperazin-1-yl)propyl)benzenesulfonamide] | > 100 µM
CCCCOc1ccc(S(=O)(=O)NCCCc2ccc(Cl)cc2)cc1 [Example 3, 4-butoxy-N-(3-(4-chlorophenyl)propyl)benzenesulfonamide] | > 100 µM
CCCCOc1ccc(S(=O)(=O)NCCCC2CCCCC2)cc1 [Example 4, 4-butoxy-N-(3-cyclohexylpropyl)benzenesulfonamide] | > 100 µM
CCCCOc1ccc(S(=O)(=O)NCCCc2cccnc2)cc1 [Example 5, 4-butoxy-N-(3-(pyridin-3-yl)propyl)benzensulfonamide] | > 100 µM
CCCCOc1ccc(S(=O)(=O)NCCCN2CCOCC2)cc1 [Example 6, 4-butoxy-N-(3-morpholinopropyl)benzenesulfonamide] | > 100 µM
CCCCOc1ccc(S(=O)(=O)NCCc2ccc(N3CCOCC3)cc2)cc1 [Example 7, 4-butoxy-N-(4-morpholinophenethyl)benzenesulfonamide] | > 100 µM
CCCCOc1ccc(S(=O)(=O)NCCc2ccc(C(=O)O)cc2)cc1 [Example 8, 4-(2-(4-butoxyphenylsulfonamido)ethyl)benzoic acid] | > 100 µM
CCCCOc1ccc(S(=O)(=O)NCCc2ccc(C(=O)OC)cc2)cc1 [Example 9, methyl 4-(2-(4-butoxyphenylsulfonamido)ethyl)benzoate] | > 100 µM
CCCCOc1ccc(S(=O)(=O)NCCN2CCC(Cc3ccccc3)CC2)cc1 [Example 10, N-(2-(4-benzylpiperidin-1-yl)ethyl)-4-butoxybenzenesulfonamide] | > 100 µM
CCCCOc1ccc(S(=O)(=O)NCCC(O)c2ccccc2)cc1 (stereo not shown) [Example 11, 4-butoxy-N-(3-hydroxy-3-phenylpropyl)benzenesulfonamide] | 10 to 100 µM
CCCCOc1ccc(S(=O)(=O)NCCC(=O)c2ccccc2)cc1 [Example 12, 4-butoxy-N-(3-oxo-3-phenylpropyl)benzenesulfonamide] | 10 to 100 µM
CCCCOc1ccc(S(=O)(=O)NCCCN2CCCC2=O)cc1 [Example 13, 4-butoxy-N-(3-(2-oxopyrrolidin-1-yl)propyl)benzenesulfonamide] | > 100 µM
CN(C)CCCOc1ccc(S(=O)(=O)NCCc2ccccc2)cc1 [Example 14, 4-(3-(dimethylamino)propoxy)-N-phenethylbenzenesulfonamide] | > 100 µM
CN(C)CCCOc1ccc(S(=O)(=O)NCCCc2ccccc2)cc1 [Example 15, 4-(3-(dimethylamino)propoxy)-N-(3-phenylpropyl)benzenesulfonamide] | > 100 µM
COC(=O)c1ccc(CCNS(=O)(=O)c2ccc(OCCCN(C)C)cc2)cc1 [Example 16, methyl 4-(2-(4-(3-(dimethylamino)propoxy)phenylsulfonamido)ethyl)benzoate] | > 100 µM
CN(C)CCCOc1ccc(S(=O)(=O)NCCc2ccc(C(=O)O)cc2)cc1 [Example 17, 4-(2-(4-(3-(dimethylamino)propoxy)phenylsulfonamido)ethyl)benzoic acid] | > 100 µM
CN(C)CCCOc1ccc(S(=O)(=O)NCCCN2CCCC2=O)cc1 [Example 18, 4-(3-(dimethylamino)propoxy)-N-(3-(2-oxopyrrolidin-1-yl)propyl)benzenesulfonamide] | > 100 µM
CCCCOc1ccc(S(=O)(=O)NCCCc2cccc3ccccc23)cc1 [Example 19, 4-butoxy-N-(3-(naphthalen-1-yl)propyl)benzenesulfonamide] | > 100 µM
CCCCOc1ccc(S(=O)(=O)NCCCc2c[nH]c3ccccc23)cc1 [Example 20, N-(3-(1H-indol-3-yl)propyl)-4-butoxybenzenesulfonamide] | 10 to 100 µM
CN(C)CCOc1ccc(S(=O)(=O)NCCCc2c[nH]c3ccccc23)cc1 [Example 21, N-(3-(1H-indol-3-yl)propyl)-4-(2-(dimethylamino)ethoxy)benzenesulfonamide] | 10 to 100 µM
CCCCOc1ccc(S(=O)(=O)NCCc2nc3ccccc3[nH]2)cc1 [Example 23] | > 100 µM

SMILES | IC50
CCCCOc1ccc(S(=O)(=O)NCCc2c[nH]c3ccccc23)cc1 [Example 24, N-(2-(1H-indol-3-yl)ethyl)-4-butoxybenzenesulfonamide] | > 100 µM
CCCCOc1ccc(S(=O)(=O)NCCc2cc3ccccc3[nH]2)cc1 [Example 25, N-(2-(1H-indol-2-yl)ethyl)-4-butoxybenzenesulfonamide] | > 100 µM
CC(C)CCOc1ccc(S(=O)(=O)NCCCc2c[nH]c3ccccc23)cc1 [Example 26, N-(3-(1H-indol-3-yl)propyl)-4-(isopentyloxy)benzenesulfonamide] | 10 to 100 µM
CCCCCOc1ccc(S(=O)(=O)NCCCc2c[nH]c3ccccc23)cc1 [Example 27, N-(3-(1H-indol-3-yl)propyl)-4-(pentyloxy)benzenesulfonamide] | 10 to 100 µM
CCCCOc1ccc(S(=O)(=O)NCCCc2nc3ccccc3[nH]2)cc1 [Example 28, N-(3-(1H-benzo[d]imidazol-2-yl)propyl)-4-butoxybenzenesulfonamide] | > 100 µM
CCCCOc1ccc(S(=O)(=O)NCCc2c[nH]c3ccc(O)cc23)cc1 [Example 29, 4-butoxy-N-(2-(5-hydroxy-1H-indol-3-yl)ethyl)benzenesulfonamide] | > 100 µM
O=S(=O)(NCCCc1c[nH]c2ccccc12)c1ccc(OCCCN2CCOCC2)cc1 [Example 30, N-(3-(1H-indol-3-yl)propyl)-4-(3-morpholinopropoxy)benzenesulfonamide] | > 100 µM
CCCCOc1ccc(S(=O)(=O)NCCCn2ccc3ccccc32)cc1 [Example 32, N-(3-(1H-indol-1-yl)propyl)-4-butoxybenzenesulfonamide] | > 100 µM
CCCCOc1ccc(S(=O)(=O)NCCCn2cnc3ccccc32)cc1 [Example 33, N-(3-(1H-benzo[d]imidazol-1-yl)propyl)-4-butoxybenzenesulfonamide] | > 100 µM
CN(C)CCCOc1ccc(S(=O)(=O)NCCc2nc3ccccc3[nH]2)cc1 [Example 37, N-(2-(1H-benzo[d]imidazol-2-yl)ethyl)-4-(3-(dimethylamino)propoxy)benzenesulfonamide] | > 100 µM
CN(C)CCCOc1ccc(S(=O)(=O)NCCc2cc3ccccc3[nH]2)cc1 [Example 38, N-(2-(1H-indol-2-yl)ethyl)-4-(3-(dimethylamino)propoxy)benzenesulfonamide] | > 100 µM
CN(C)CCCOc1ccc(S(=O)(=O)NCCCn2ccc3ccccc32)cc1 [Example 39, N-(3-(1H-indol-1-yl)propyl)-4-(3-(dimethylamino)propoxy)benzenesulfonamide] | > 100 µM
CN(C)CCCOc1ccc(S(=O)(=O)NCCCn2cnc3ccccc32)cc1 [Example 40, N-(3-(1H-benzo[d]imidazol-1-yl)propyl)-4-(3-(dimethylamino)propoxy)benzenesulfonamide] | > 100 µM
CN1CCN(CCCOc2ccc(S(=O)(=O)NCCCn3ccc4ccccc43)cc2)CC1 [Example 41, N-(3-(1H-indol-1-yl)propyl)-4-(3-(4-methylpiperazin-1-yl)propoxy)benzenesulfonamide] | > 100 µM
CN1CCN(CCCOc2ccc(S(=O)(=O)NCCCn3cnc4ccccc43)cc2)CC1 [Example 42, N-(3-(1H-benzo[d]imidazol-1-yl)propyl)-4-(3-(4-methylpiperazin-1-yl)propoxy)benzenesulfonamide] | > 100 µM
O=S(=O)(NCCCc1c[nH]c2ccccc12)c1ccc(OCCCN2CCCCC2)cc1 [Example 43, N-(3-(1H-indol-3-yl)propyl)-4-(3-(piperidin-1-yl)propoxy)benzenesulfonamide] | 10 to 100 µM
CN(C)CCCOc1ccc(S(=O)(=O)NCCCc2cn(C)c3ccccc23)cc1 [Example 46, 4-(3-(dimethylamino)propoxy)-N-(3-(1-methyl-1H-indole-3-yl)propyl)benzenesulfonamide] | > 100 µM
O=S(=O)(NCCCc1c[nH]c2ccccc12)c1ccc(Br)cc1 [Example 47, N-(3-(1H-indole-3-yl)propyl)-4-bromobenzenesulfonamide] | > 100 µM
CC(C)N1CCN(CCCOc2ccc(S(=O)(=O)NCCCc3c[nH]c4ccccc34)cc2)CC1 [Example 48, N-(3-(1H-indol-3-yl)propyl)-4-(3-(4-isopropylpiperazin-1-yl)propoxy)benzenesulfonamide] | 10 to 100 µM
COc1ccc2[nH]cc(CCNS(=O)(=O)c3ccc(OCCCN4CCN(C)CC4)cc3)c2c1 [Example 49, N-(2-(5-methoxy-1H-indol-3-yl)ethyl)-4-(3-(4-methylpiperazin-1-yl)propoxy)benzenesulfonamide] | 10 to 100 µM
CN1CCN(CCCOc2ccc(S(=O)(=O)NCCc3c[nH]c4ccccc34)cc2)CC1 [Example 50, N-(2-(1H-indol-3-yl)ethyl)-4-(3-(4-methylpiperazin-1-yl)propoxy)benzenesulfonamide] | 10 to 100 µM

— US12583818B2 (DAEGU-GYEONGBUK MEDICAL INNOVATION FOUNDATION, priority 2020, dated 2026)
